Test [1] deals with AeNobo-WT (Aedes aegypti, UniProt A0A1S4FIB3). As to the kind of experiment: GST activity inhibition assay with 3,4-DNADCF, wild-type AeNobo. Type of test: biochemical. The method, then: We prepared a purified AeNobo recombinant protein (220-aa length) using an Escherichia coli protein expression system. The GST enzymatic activity was examined using the fluorogenic artificial substrate 3,4-dinitrobenzamidedichlorofluorescein (3,4-DNADCF).
The IC50 value was measured using an in vitro assay system as described previously. […] Five microliters of each diluted compound solution was mixed with 245 μL of solution A (100 mM sodium phosphate buffer at pH 6.5, 0.01% Tween 20, 2 mM GSH, and 50 ng/mL AeNobo-WT, 100 ng/mL AeNobo-E113A, and 200 ng/mL F39L). One hundred microliters of the mixture was dispensed into wells of a 96-well plate. One hundred microliters of solution B (0.2 μM 3,4-DNADCF and 100 mM sodium phosphate buffer at pH 6.5) was added to each well. In summary, the final reaction system comprised 100 mM sodium phosphate buffer (pH 6.5), 1 mM GSH, 0.005% Tween 20, 0.1 μM 3,4-DNACDF, and 25 ng/mL AeNobo, 50 ng/mL AeNobo-E113A, or 100 ng/mL AeNobo-F39L protein. The fluorescence intensity derived from 4-GS-3-NADCF, a product of this reaction, was measured for 3 min. IC50 values were estimated as described previously. The enzymatic assays under each condition were performed at least twice independently.
To identify inhibitors of AeNobo enzymatic activity, a high-throughput screening was performed as described in a previous study. Briefly, a core library of 9600 compounds obtained from the Drug Discovery Initiative, The University of Tokyo, was utilized for screening. In this screen, the enzymatic activity of AeNobo was detected using 3,4-DNADCF [29]. […] Then, 1 μL of solution B (4 μM 3,4-DNADCF, 100 mM sodium phosphate at pH 6.5, and 0.005% Tween 20) was added into each well. In summary, the reaction system comprised 5.6 ng/mL AeNobo protein, 2 μM 3,4-DNADCF, 1 mM GSH, 0.005% Tween 20, and 100 mM sodium phosphate at pH 6.5, together with each compound at 10 μM. The plate was incubated for 30 min at 25–27 °C and 2 μL of 10 mM N-ethylmaleimide was added into each well to stop the reaction. […] For the second screen, we assayed the IC50 values of the compounds against the enzymatic activity of AeNobo.

Test [2] concerns the target AeNobo-E113A (Aedes aegypti, UniProt A0A1S4FIB3, E164K). The test is described as follows: GST activity inhibition assay with 3,4-DNADCF, AeNobo-E113A. Type of test: biochemical. An excerpt:
The importance of the Glu-113–flavonoid hydrogen bond for flavonoid binding was biochemically examined with a recombinant mutated AeNobo protein carrying an E113A aa substitution (AeNobo-E113A).
(§1) pCold III plasmids expressing the AeNobo-E113A and AeNobo-F39L were constructed using KOD-Plus-Mutagenesis Kit (Toyobo). The following primers were used: E113A-F (5′-[…]-3′) and E113A-R (5′-[…]-3′) for AeNobo-E113A and F39L-F (5′-[…]-3′) and F39L-R (5′-[…]-3′) for AeNobo-F39L. We conducted inverse PCR using KOD-plus polymerase, pColdIII/AeNobo-WT plasmid, and the primer pair described above under the following conditions: pre-denaturation at 94 °C for 2 min, denaturation at 98 °C for 10 s, and extension at 68 °C for 6 min for 6 cycles. The PCR products were treated with DpnI at 37 °C for 1 h, followed by self-ligation using T4 polynucleotide kinase and Ligation High. After the transformation of DH5α bacteria using the ligation products, we extracted plasmid DNA from the colonies and verified their sequences to confirm whether the appropriate point mutations were introduced.
The IC50 value was measured using an in vitro assay system as described previously. A dilution series of compounds, ranging from 2.5 mM to 0.127 μM for DMG and from 2.5 mM to 4.9 μM for other compounds, was prepared by 2-fold serial dilution in DMSO. Five microliters of each diluted compound solution was mixed with 245 μL of solution A (100 mM sodium phosphate buffer at pH 6.5, 0.01% Tween 20, 2 mM GSH, and 50 ng/mL AeNobo-WT, 100 ng/mL AeNobo-E113A, and 200 ng/mL F39L). One hundred microliters of the mixture was dispensed into wells of a 96-well plate. One hundred microliters of solution B (0.2 μM 3,4-DNADCF and 100 mM sodium phosphate buffer at pH 6.5) was added to each well. In summary, the final reaction system comprised 100 mM sodium phosphate buffer (pH 6.5), 1 mM GSH, 0.005% Tween 20, 0.1 μM 3,4-DNACDF, and 25 ng/mL AeNobo, 50 ng/mL AeNobo-E113A, or 100 ng/mL AeNobo-F39L protein. The fluorescence intensity derived from 4-GS-3-NADCF, a product of this reaction, was measured for 3 min. IC50 values were estimated as described previously. The enzymatic assays under each condition were performed at least twice independently.

Test [3] deals with Ae. aegypti 1st instar larvae. Particulars: cited from earlier work.
The target in test [4] is AeNobo-F39L (Aedes aegypti, UniProt A0A1S4FIB3, F90L). As to the kind of experiment: GST activity inhibition assay with 3,4-DNADCF, AeNobo-F39L. It counts as biochemical. How it is done:
as §1
The IC50 value was measured using an in vitro assay system as described previously. A dilution series of compounds, ranging from 2.5 mM to 0.127 μM for DMG and from 2.5 mM to 4.9 μM for other compounds, was prepared by 2-fold serial dilution in DMSO. […] The fluorescence intensity derived from 4-GS-3-NADCF, a product of this reaction, was measured for 3 min. […]

Where [5] appears, read: Table S2, estrogenic compounds against AeNobo, read-out: IC50 (μM) (mean ± s.d.).
Setting [6] is: Table 1, GSH conjugation of 3,4-DNADCF, read-out: IC50 to AeNobo-WT (μM) (mean ± s.d.).
Setting [7] is: read-out: IC50 (μM) (mean ± s.d.).
Where [8] appears, read: Table S5, luteolin derivatives against AeNobo, read-out: IC50 (μM) (mean ± s.d.).

Read-outs that look alike come from different tables or passages of the source.

Sequence of AeNobo-WT (A0A1S4FIB3 entry or part of it): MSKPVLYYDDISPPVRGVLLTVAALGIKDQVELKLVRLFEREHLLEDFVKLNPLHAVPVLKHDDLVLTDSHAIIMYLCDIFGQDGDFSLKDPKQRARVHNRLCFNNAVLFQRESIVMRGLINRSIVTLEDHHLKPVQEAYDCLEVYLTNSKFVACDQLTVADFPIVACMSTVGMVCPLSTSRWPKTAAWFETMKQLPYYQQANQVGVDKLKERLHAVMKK
Sequence of AeNobo-E113A (A0A1S4FIB3 entry or part of it E164K): as the sequence (A0A1S4FIB3 entry or part of it) above, with E113K counted along it
Sequence of AeNobo-F39L (A0A1S4FIB3 entry or part of it F90L): as the sequence (A0A1S4FIB3 entry or part of it) above, with F39L counted along it

Take `ClC(Cl)=C(c1ccc(Cl)cc1)c1ccc(Cl)cc1` [1,1-Dichloro-2,2-bis(4-chlorophenyl)ethene]: the half-maximal inhibitory concentration (IC50) in test [1] is above 25 µM.

As to `CCCCOC(=O)c1ccccc1C(=O)OCc1ccccc1` [1-benzyl 2-butyl benzene-1,2-dicarboxylate], in test [1] (setting [5]), the IC50 is above 25 µM.

As to `Cn1c(N)nc2ncc(-c3ccccc3)cc21` [2-Amino-1-methyl-6-phenylimidazo[4,5-b]pyridine], the IC50 in test [1] is above 25 µM.

Turning to `O=C1CC(c2ccccc2O)Oc2ccccc21` (stereo not drawn) [2′-Hydroxyflavanone], the concentration for half-maximal inhibition (IC50) was above 25 µM in test [2] and 4.76 ± 0.37 µM in test [1] (setting [6]).

As to `O=c1c(-c2ccc(O)cc2)coc2ccccc12` [3-(4-Hydroxyphenyl)-4H-chromen-4-one], the “Inhibition of enzymatic activity of AeNobo (in words)” value (shortened to “Inhibition”) in test [1] (3,4-DNADCF) is on record as “did not inhibit”. For the same compound, the IC50 in test [1] (setting [7]) is above 25 µM.

`CC(C)(C)CC(C)(C)c1ccc(O)cc1` [4-(2,4,4-trimethylpentan-2-yl)phenol]: the IC50 in test [1] (setting [5]) was above 25 µM.

As to `Oc1ccc(C(c2ccc(O)cc2)C(Cl)(Cl)Cl)cc1` [4-[2,2,2-trichloro-1-(4-hydroxyphenyl)ethyl]phenol], the IC50 in test [1] is above 25 µM.

Consider `CC1=CC[C@@H]2C[C@H]1C(c1ccc(O)cc1)OC2(C)C` (stereo partly drawn) [4-[(1R,5R)-4,4,8-trimethyl-3-oxabicyclo[3.3.1]non-7-en-2-yl]phenol], for which the IC50 in test [1] (setting [5]) is above 25 µM.

Take `CC1=CC(C)[C@@]2(CO)COC(c3ccc(O)cc3)[C@@H]1C2C` (stereo partly drawn) [4-[(1R,5R)-5-(hydroxymethyl)-6,8,9-trimethyl-3-oxabicyclo[3.3.1]non-7-en-2-yl]phenol]: the IC50 in test [1] (setting [5]) is above 25 µM.

Compound `O=c1cc(-c2ccc(O)c(O)c2)oc2cccc(O)c12` [5,3’,4’-Trihydroxyflavone, 5,3′,4′-trihydroxyflavone] registered an IC50 in test [1] of 1.64 ± 0.1 µM. In test [1] (3,4-DNADCF), the “Inhibition” value is given as “retained inhibitory activity”.

`O=c1cc(-c2ccc(O)c(O)c2)oc2cc(O)ccc12` [7,3’,4’-Trihydroxyflavone, 7,3′,4′-trihydroxyflavone]: the “Inhibition” value in test [1] (3,4-DNADCF) was “retained inhibitory activity”. For the same compound, the IC50 in test [1] (setting [7]) amounted to 10.3 ± 0.47 µM.

In test [1], `O=c1c(-c2ccccc2)coc2cc(O)ccc12` [7-Hydroxyisoflavone] came in with an IC50 of 5.61 ± 0.3 µM. Moreover, in test [1] (3,4-DNADCF), the “Inhibition” value is “retained inhibitory activity”.

As for `C[C@]12CC[C@@H]3c4ccc(O)cc4CC[C@H]3[C@@H]1C/C(=C\c1ccccc1)C2=O` [16-benzylidene estrone], the IC50 in test [1] (setting [5]) was above 25 µM.

On to `Cc1cc(-c2ccc3c(c2)CC[C@]3(C)O)cc(C)c1O` [(S)-5-(4-hydroxy-3,5-dimethylphenyl)-1-methyl-2,3-dihydro-1H-inden-1-ol], for which the IC50 in test [1] (setting [5]) was above 25 µM.

`O=c1cc(-c2ccc(O)cc2)oc2cc(O)cc(O)c12` [Apigenin]: the IC50 is above 25 µM in test [1] (setting [8]); above 25 µM in test [1] (text and figures, 3,4-DNADCF, read-out: IC50 against AeNobo (WT)).

In the case of `COc1ccc(-c2coc3cc(O)cc(O)c3c2=O)cc1` [Biochanin A], the IC50 in test [2] (Table 1, GSH conjugation of 3,4-DNADCF, read-out: IC50 to AeNobo-E113A (μM) (mean ± s.d.)) was above 25 µM; in test [1] (setting [6]) it was 1.84 ± 0.06 µM.

Consider `CC(C)(c1ccc(O)cc1)c1ccc(O)cc1` [Biosphenol A, 4,4'-propane-2,2-diyldiphenol], for which the IC50 in test [1] is above 25 µM.

With `O=c1cc(-c2ccccc2)oc2cc(O)cc(O)c12` [Chrysin], in test [1] (3,4-DNADCF), the “Inhibition” value is on record as “did not exhibit any inhibitory activity”. Besides, the IC50 in test [1] (setting [8]) was above 25 µM.

Consider `Oc1cc(O)c2cc(O)c(-c3ccc(O)c(O)c3)[o+]c2c1` [Cyanidin chloride], for which the IC50 was above 25 µM in test [2] and 2.15 ± 0.24 µM in test [1] (setting [6]).

In test [2], `O=c1c(-c2ccc(O)cc2)coc2cc(O)ccc12` [Daidzein] came in with an IC50 above 25 µM. For the same compound, in test [3], the “Larvicidal activity against Ae. aegypti” value is “exhibit larvicidal activity” and the “Larvicidal activity toward Ae. aegypti” value is recorded as “known to exhibit larvicidal activity”. The compound further yielded an IC50 in test [1] of 3.87 ± 0.52 µM.

On to `O=c1c(O)c(-c2ccc(O)c(O)c2)oc2cc(O)ccc12` [Fisetin], for which the figures for the IC50 in test [2] and in test [1] (setting [6]) were above 25 µM and 1.69 ± 0.04 µM, respectively.

For `O=c1c(-c2ccc(O)cc2)coc2cc(O)cc(O)c12` [Genistein], the “Larvicidal activity against Ae. aegypti” value in test [3] is listed as “exhibit larvicidal activity”. Further, the concentration for half-maximal inhibition (IC50) in test [1] (setting [7]) was determined as 1.86 ± 0.41 µM.

Turning to `O=c1c(O)c(-c2ccc(O)cc2)oc2cc(O)cc(O)c12` [Kaempferol], the values for the IC50 in test [2] and in test [1] (setting [6]) were above 25 µM and 4.91 ± 1.69 µM, respectively.

Regarding `O=c1cc(-c2ccc(O)c(O)c2)oc2cc(O)cc(O)c12` [Luteolin], the IC50 in test [2] was 35.8 ± 5.73 µM; in test [4] it was 1580 nM. Moreover, the “Larvicidal activity toward Ae. aegypti” value in test [3] was “known to exhibit larvicidal activity”.

On to `O=c1c(O)c(-c2cc(O)c(O)c(O)c2)oc2cc(O)cc(O)c12` [Myricetin], for which the IC50 in test [2] is above 25 µM; in test [1], 2.91 ± 0.27 µM.

Consider `O=C1C[C@@H](c2ccc(O)cc2)Oc2cc(O)cc(O)c21` [Naringenin], for which the IC50 in test [1] (setting [6]) was above 25 µM.

Consider `COc1cc(-c2[o+]c3cc(O)cc(O)c3cc2O)cc(O)c1O` [Petunidin], for which the concentration for half-maximal inhibition (IC50) in test [2] is above 25 µM; in test [1] (setting [6]), 14.9 ± 2.01 µM.

For the compound `O=c1c(O)c(-c2ccc(O)c(O)c2)oc2cc(O)cc(O)c12` [Quercetin], the IC50 in test [2] was above 25 µM; in test [1] it was 0.963 ± 0.094 µM.

On to `Oc1ccc(/C=C/c2cc(O)cc(O)c2)cc1` [Resveratrol], for which the IC50 in test [1] (setting [5]) is above 25 µM.

With `Oc1ccc([C@H]2COc3cc(O)ccc3C2)cc1` [S-equol], the half-inhibitory concentration (IC50) in test [1] (setting [6]) is above 25 µM.

As for `COc1ccc(-c2oc3cc(O)cc(O)c3c(=O)c2O)cc1O` [Tamarixetin], the IC50 in test [1] (setting [6]) was above 25 µM.

For the compound `C[C@H]1CCCC(=O)CCC/C=C/c2cc(O)cc(O)c2C(=O)O1` [Zearalenone], the IC50 in test [1] was above 25 µM.

With `O=C(c1ccc(O)cc1O)c1ccc(O)cc1O` [bis(2,4-dihydroxyphenyl)methanone], the half-maximal inhibitory concentration (IC50) in test [1] (setting [5]) was above 25 µM.

With `CCCCOC(=O)c1ccc(O)cc1` [butyl 4-hydroxybenzoate], in test [1] (setting [5]), the half-maximal inhibitory concentration (IC50) is above 25 µM.

For `CCCOC(=O)c1ccc(O)cc1` [propyl 4-hydroxybenzoate], in test [1] (setting [5]), the IC50 was above 25 µM.

Regarding `C[C@H]1CCC[C@H](O)CCCCCc2cc(O)cc(O)c2C(=O)O1` [α-zearalanol], the IC50 in test [1] (setting [5]) was above 25 µM.

For “(+)-catechin hydrate [(+) Catechin hydrate]”, in test [1] (setting [6]), the IC50 is above 25 µM.

Source of the values: publication PMC8851771, “Molecular action of larvicidal flavonoids on ecdysteroidogenic glutathione S-transferase Noppera-bo in Aedes aegypti” (BMC Biology, 2022).
